Test results reported in ChEMBL document CHEMBL5154816, “Structure-Based Discovery and Optimization of Furo[3,2-c]pyridin-4(5H)-one Derivatives as Potent and Second Bromodomain (BD2)-Selective Bromo and Extra Terminal Domain (BET) Inhibitors” (J Med Chem, 2022).
pIC50, pKd: −log10 of the molar value.

Experiments:
BXPC-3 = assay: Antiproliferative activity against human BxPC-3 cells assessed as cell growth inhibition incubated for 72 hrs by Cell titre Glo-luminiscence cell viability assay; format: functional, cell-based; details: BXPC-3, 72 h
Kasumi 1 = assay: Antiproliferative activity against human Kasumi 1 cells assessed as cell growth inhibition incubated for 72 hrs by Cell titre Glo-luminiscence cell viability assay; format: functional, cell-based; details: Kasumi 1, 72 h
[1] = Metabolic stability in rat hepatocytes assessed as hepatic clearance at 1 uM measured up to 60 mins in presence of NADPH by HPLC-MS/MS analysis; format: ADME, cell-based, Hepatocyte
[2] = target: T1, Bromodomain-containing protein 2 (Homo sapiens, UniProt P25440); assay: Inhibition of C-terminal His6-tagged BRD2 BD2 (unknown origin) using H-YSGRGK(Ac)GGK(Ac)GLGK(Ac)-GGAK(Ac)RHRK-Biotin-OH as substrate incubated for 1 hrs by HTRF assay
HepG2 = assay: Antiproliferative activity against human HepG2 cells assessed as cell growth inhibition incubated for 72 hrs by Cell titre Glo-luminiscence cell viability assay; format: functional, cell-based; details: HepG2, 72 h
[3] = Metabolic stability in human liver microsomes assessed as intrinsic clearance at 1 uM measured up to 60 mins in presence of NADPH by HPLC-MS/MS analysis; format: ADME, Microsome; details: 1 h
[4] = Metabolic stability in rat liver microsomes assessed as intrinsic clearance at 1 uM measured up to 60 mins in presence of NADPH by HPLC-MS/MS analysis; format: ADME, Microsome; details: 1 h
MCF7 = assay: Antiproliferative activity against human MCF7 cells assessed as cell growth inhibition incubated for 96 hrs by Cell titre Glo-luminiscence cell viability assay; format: functional, cell-based; details: MCF7, 96 h
[5] = target: Bromodomain testis-specific protein (Homo sapiens, UniProt Q58F21); assay: Binding affinity to His6-fused BRDT BD1 (unknown origin) assessed as dissociation constant in PBS incubated for 1 hrs by biolayer interferometry analysis
A549 = assay: Antiproliferative activity against human A549 cells assessed as cell growth inhibition incubated for 72 hrs by Cell titre Glo-luminiscence cell viability assay; format: functional, cell-based; details: A549, 72 h
CWR22R = assay: Antiproliferative activity against human 22Rv1 cells assessed as cell growth inhibition incubated for 72 hrs by Cell titre Glo-luminiscence cell viability assay; format: functional, cell-based; details: 22Rv1, 72 h
U-937 = assay: Antiproliferative activity against human U-937 cells assessed as cell growth inhibition incubated for 72 hrs by Cell titre Glo-luminiscence cell viability assay; format: functional, cell-based; details: U-937, 72 h
MDA-MB-231 = assay: Antiproliferative activity against human MDA-MB-231 cells assessed as cell growth inhibition incubated for 96 hrs by Cell titre Glo-luminiscence cell viability assay; format: functional, cell-based; details: MDA-MB-231, 96 h
[6] = target: T1, Bromodomain-containing protein 2; assay: Binding affinity to His6-fused BRD2 BD2 (unknown origin) assessed as dissociation constant in PBS incubated for 1 hrs by biolayer interferometry analysis
[7] = Metabolic stability in human liver microsomes assessed as half life at 1 uM measured up to 60 mins in presence of NADPH by HPLC-MS/MS analysis; format: ADME, Microsome
[8] = target: T2, Bromodomain-containing protein 3 (Homo sapiens, UniProt Q15059); assay: Binding affinity to His6-fused BRD3 BD2 (unknown origin) assessed as dissociation constant in PBS incubated for 1 hrs by biolayer interferometry analysis
HT-29 = assay: Antiproliferative activity against human HT-29 cells assessed as cell growth inhibition incubated for 120 hrs by Cell titre Glo-luminiscence cell viability assay; format: functional, cell-based; details: HT-29, 120 h
[9] = Metabolic stability in rat liver microsomes assessed as half life at 1 uM measured up to 60 mins in presence of NADPH by HPLC-MS/MS analysis; format: ADME, Microsome
U2OS = assay: Antiproliferative activity against human U2OS cells assessed as cell growth inhibition incubated for 72 hrs by Cell titre Glo-luminiscence cell viability assay; format: functional, cell-based
MV4-11 = assay: Antiproliferative activity against human MV4-11 cells assessed as cell growth inhibition incubated for 120 hrs by Cell titre Glo-luminiscence cell viability assay; format: functional, cell-based
MOLM-13 = assay: Antiproliferative activity against human MOLM-13 cells assessed as cell growth inhibition incubated for 72 hrs by Cell titre Glo-luminiscence cell viability assay; format: functional, cell-based; details: MOLM-13, 72 h
[10] = Metabolic stability in human hepatocytes assessed as hepatic clearance at 1 uM measured up to 60 mins in presence of NADPH by HPLC-MS/MS analysis; format: ADME, cell-based, Hepatocyte
THP-1 = assay: Antiproliferative activity against human THP-1 cells assessed as cell growth inhibition incubated for 72 hrs by Cell titre Glo-luminiscence cell viability assay; format: functional, cell-based; details: THP-1, 72 h
DU-145 = assay: Antiproliferative activity against AR-negative human DU-145 cells assessed as cell growth inhibition incubated for 72 hrs by Cell titre Glo-luminiscence cell viability assay; format: functional, cell-based; details: DU-145, 72 h
[11] = target: T2, Bromodomain-containing protein 3; assay: Inhibition of C-terminal His6-tagged BRD3 BD2 (unknown origin) using H-YSGRGK(Ac)GGK(Ac)GLGK(Ac)-GGAK(Ac)RHRK-Biotin-OH as substrate incubated for 1 hrs by HTRF assay
[12] = Cytotoxicity against human HFL1 cells assessed as cell growth inhibition incubated for 72 hrs by Cell titre Glo-luminiscence cell viability assay; format: toxicity, cell-based
[13] = target: T3, Bromodomain-containing protein 4 (Homo sapiens, UniProt O60885); assay: Binding affinity to His6-fused BRD4 BD2 (unknown origin) assessed as dissociation constant in PBS incubated for 1 hrs by biolayer interferometry analysis
[14] = target: T3, Bromodomain-containing protein 4; assay: Binding affinity to His6-fused BRD4 BD1 (unknown origin) assessed as dissociation constant in PBS incubated for 1 hrs by biolayer interferometry analysis

T1 sequence (P25440 whole entry): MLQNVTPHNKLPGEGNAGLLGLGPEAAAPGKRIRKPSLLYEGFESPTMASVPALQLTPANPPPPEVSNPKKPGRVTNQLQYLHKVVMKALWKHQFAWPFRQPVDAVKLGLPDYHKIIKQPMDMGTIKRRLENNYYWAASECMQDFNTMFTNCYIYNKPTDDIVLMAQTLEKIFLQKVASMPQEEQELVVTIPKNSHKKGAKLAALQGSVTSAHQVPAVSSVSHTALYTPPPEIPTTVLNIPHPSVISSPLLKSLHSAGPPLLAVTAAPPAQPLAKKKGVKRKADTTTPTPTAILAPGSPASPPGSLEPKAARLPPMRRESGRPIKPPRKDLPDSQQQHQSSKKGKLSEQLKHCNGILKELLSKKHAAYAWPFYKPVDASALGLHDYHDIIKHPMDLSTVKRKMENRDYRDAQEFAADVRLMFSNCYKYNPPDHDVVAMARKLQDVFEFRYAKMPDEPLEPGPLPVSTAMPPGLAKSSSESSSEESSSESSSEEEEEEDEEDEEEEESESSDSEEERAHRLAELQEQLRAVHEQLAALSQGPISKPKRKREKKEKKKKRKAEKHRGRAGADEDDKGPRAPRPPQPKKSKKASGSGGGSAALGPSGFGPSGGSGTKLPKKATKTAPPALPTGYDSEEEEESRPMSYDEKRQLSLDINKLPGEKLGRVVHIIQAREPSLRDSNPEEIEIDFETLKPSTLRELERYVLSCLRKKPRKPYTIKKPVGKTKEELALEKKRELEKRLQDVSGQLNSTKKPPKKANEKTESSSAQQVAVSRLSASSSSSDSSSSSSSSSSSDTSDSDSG
T2 sequence (Q15059 whole entry, the tested form may be a part): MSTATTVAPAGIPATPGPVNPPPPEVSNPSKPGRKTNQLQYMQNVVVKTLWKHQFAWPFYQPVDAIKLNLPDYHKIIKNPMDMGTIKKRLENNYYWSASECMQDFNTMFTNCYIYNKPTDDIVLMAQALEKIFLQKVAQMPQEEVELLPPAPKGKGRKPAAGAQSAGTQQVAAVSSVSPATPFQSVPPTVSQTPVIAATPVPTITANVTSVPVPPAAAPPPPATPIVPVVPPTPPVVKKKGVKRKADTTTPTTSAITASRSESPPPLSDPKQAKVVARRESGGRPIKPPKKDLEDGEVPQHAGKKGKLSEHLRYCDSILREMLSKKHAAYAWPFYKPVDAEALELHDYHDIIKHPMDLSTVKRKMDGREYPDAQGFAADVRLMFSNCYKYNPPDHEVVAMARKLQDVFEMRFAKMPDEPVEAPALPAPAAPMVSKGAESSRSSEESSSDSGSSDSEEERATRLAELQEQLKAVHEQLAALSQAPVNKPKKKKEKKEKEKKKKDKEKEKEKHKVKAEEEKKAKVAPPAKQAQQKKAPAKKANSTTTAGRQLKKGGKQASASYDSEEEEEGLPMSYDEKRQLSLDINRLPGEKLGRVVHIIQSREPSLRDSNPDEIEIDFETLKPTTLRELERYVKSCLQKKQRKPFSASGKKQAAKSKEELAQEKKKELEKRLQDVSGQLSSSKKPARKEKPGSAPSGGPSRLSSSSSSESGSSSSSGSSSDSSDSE

`Cc1cc(F)cc(C)c1Oc1ccc(C(C)(C)O)cc1-c1cn(C)c(=O)c2cc(-c3cnc(C4CCCC4)[nH]3)oc12` gave a pIC50 (BXPC-3) of 6.00, a pIC50 (Kasumi 1) of 6.33 and a CLhep predicted at 1 µM [1] of 17.9 mL/min/kg. It also gave a CLH ([1]; 1 h, 1 µM) of 0.043 mL/min/g, a pIC50 [2] of 8.29 and a pIC50 (HepG2) of 6.00. The CLH [3] was 0.115 mL/min/g, the CLH [4] was 0.043 mL/min/g and the pIC50 (MCF7) was 6.00. It also gave a pKd [5] of 5.44, a pIC50 (A549) of 6.00 and a pIC50 (CWR22R) of 6.63. It also gave a pIC50 (U-937) of 6.00, a pIC50 (MDA-MB-231) of 6.00 and a pKd [6] of 7.63. It also gave a half-life at 1 µM [7] of 15.2 min, a pKd [8] of 7.58 and a pIC50 (HT-29) of 6.52. The half-life at 1 µM [9] was 58.3 min, the pIC50 (U2OS) was 6.00 and the pIC50 (MV4-11; Homo sapiens, MV4-11, 120 h) was 9.26. It also gave a pIC50 (MV4-11; mv4-11) of 9.26, a pIC50 (MOLM-13) of 6.59 and a CLhep predicted at 1 µM [10] of 17.5 mL/min/kg. The CLH ([10]; 1 h, 1 µM) was 0.115 mL/min/g, the pIC50 (THP-1) was 5.89 and the pIC50 (DU-145) was 6.00. For the same molecule, the pIC50 [11] was 8.27 and the IC50 at 72 h [12] was 4600 nM.

Molecule `Cc1cc(F)cc(C)c1Oc1ccc(C(C)(C)O)cc1-c1cn(C)c(=O)c2cc(-c3cnc(C4CCCCC4)[nH]3)oc12` has a pKd [13] of 7.35, a pIC50 [2] of 7.96 and a pKd [5] of 5.48. The pKd [6] was 6.90, the pKd [8] was 7.05 and the pKd [14] was 5.30. For the same molecule, the pIC50 [11] was 7.89.
